Series [1] relates to opioid-induced PCO2 increases. Particulars: rat, in vivo.
Series [2] relates to ricinus oil-induced diarrhea. As to conditions: rat, in vivo.
Series [3] has as its system opioid-induced PCO2 increases. As to conditions: in vivo.
The subject of series [4] is ricinus oil-induced diarrhea. As to conditions: in vivo.
Series [5] deals with opioid-induced PCO2 increases. Particulars: guinea pig, in vivo.
For series [6], the system named is charcoal propulsion. As to conditions: in vivo.
Series [7] deals with acetone-induced lifting behaviour. The experiment in a line: Tolerance in a chronic neuropathic pain model (CCI gerbils, acetone spray test). The format is in vivo. As to conditions: 11 days.
Series [8] deals with ricinus oil-induced diarrhea. Description: whole plant or invertebrate. As to conditions: in Meriones unguiculatus, sc, 8 h, read-out: ED50 to postpone the ricinus oil-induced diarrhea.
For series [9], the system named is charcoal propulsion. Description: animal or person. The format is in vivo, rats. As to conditions: Rattus norvegicus, sc, read-out: ED50 for an inhibition of charcoal propulsion (<60 %).
Series [10] deals with ricinus oil-induced diarrhea. The experiment in a line: whole plant or invertebrate. As to conditions: in Rattus norvegicus, sc, 4 h, read-out: ED50 to postpone the ricinus oil-induced diarrhea.

SMILES strings stand for the structures. Like-named read-outs stand apart in the source and are kept apart here.

As to `Cc1cccc(C)c1NC(=O)CN1CCN(C2CCN(C(=O)c3cc(C(F)(F)F)cc(C(F)(F)F)c3)C(Cc3ccccc3)C2)CC1` (single isomer, unassigned; (+)) [Compound 95, (+)-(B)-trans-4-[1-[3,5-bis(trifluoromethyl)benzoyl]-2-(phenylmethyl)-4-piperidinyl]-N-(2,6-dimethylphenyl)-1-piperazine acetamide, (L)-malic acid (1:1)], the “reduction of the frequency of retches, vomiting and periods of emesis” value in the series on morphine-induced emesis (at 0.4 mg/kg morphine (submaximal dose)) is “non-significant tendency”. In the series on morphine-induced emesis (at 0.8 mg/kg morphine), the “doses with activity on periods of emesis” value is listed as no less than 2.5 mg/kg. Further, the “number (frequency) of vomits” value in the series with morphine-induced emesis (at 0.8 mg/kg morphine, 10 mg/kg Compound 95 i.p.) is on record as “diminished significantly”. Moreover, the number of retches result in the series on morphine-induced emesis (at 0.8 mg/kg morphine, doses of 10 and 40 mg/kg i.p. Compound 95) is recorded as “significantly reduced”. For the same compound, the “number of animals reaching high (>50 mm Hg) levels of PCO2” value in series [1] is “reduced”. Besides, in series [1] (sc, 40 mg/kg), the PCO2 levels entry is reported as “did not affect the PCO2 levels”. In series [2], the “effect of adding Compound 95 on the ED50s of the opioids” value is “did not alter” and the effects on constipation entry is recorded as “minimal effects”. Moreover, in series [3], the PCO2 values result is recorded as “no effects were observed” and the “opioid-induced PCO2 levels” value is reported as “significant decreases”. Further, in series [4], the “effect of adding Compound 95 on the ED50s of the opioids” value was “did not alter” and the effects on constipation entry is recorded as “minimal effects”. In series [5], the PCO2 values result was “did not affect PCO2 values” and the “opioid-induced PCO2 levels” value is reported as “reductions in the opioid-induced PCO2 levels”. Besides, in the series with charcoal propulsion [6], the “effect of adding Compound 95 on the outcome of the opioids” value was “did not affect the outcome of the opioids” and the “inhibition of the charcoal propulsion” value was “inactive”. In addition, the acetone-induced lifting behaviour entry in series [7] (2.5 mg/kg Compound 95 i.p. twice daily alone) is listed as “limited activity”. Also, in series [7] (2.5 mg/kg Compound 95 with 2.5 mg/kg morphine i.p. twice daily), the “acetone-induced lifting behaviour, activity over time” value is reported as “the activity remained present over the entire testing period”.
`COc1ccc2c3c1O[C@H]1[C@@H](O)C=C[C@H]4[C@@H](C2)N(C)CC[C@@]341` [Codeine, codeine]: the ED50 (as a rule, the dose at which the effect has come halfway, by size or by number of responders) in series [8] came to 1.67 mg/kg. Besides, the “inhibition of the ricinus oil -induced diarrhea” value (shortened to “inhibition of the ricinus oil”) in series [4] was “dose-dependent inhibition”.
In the case of `CN1CC[C@]23c4c5ccc(O)c4O[C@H]2[C@@H](O)C=C[C@H]3[C@H]1C5` [Morphine, morphine], the results for the ED50 (with charcoal propulsion [9]; in [10]) were 1.66 mg/kg and 2.19 mg/kg, respectively. The “doses causing central side-effects” value in the series with morphine-induced emesis (in vivo, ip) is greater than 0.8 mg/kg. The “levels of Pco2” value in [1] is given as “increased levels of Pco2”. Further, the “inhibition of the ricinus oil” value in series [2] and in series [4] was “dose-dependent inhibition” each time. Besides, in series [5] (sc), the PCO2 entry was “increase in PCO2”.
Take `COc1ccc2c3c1O[C@H]1C(=O)CC[C@@]4(O)[C@@H](C2)N(C)CC[C@]314` [Oxycodone, oxycodone]: the “inhibition of the ricinus oil” value in [4] was “dose-dependent inhibition”.

For the origin of these results see patent EP1635833B1 (priority 2003, dated 2004).
